According to patent US20190040083A1 (priority 2016, published 2019):
In brackets after ≈: the same amount, converted by molar mass.

Tests used:
[1] = test system: Staphylococcus aureus ATCC 29213; assay: microbe, parasite or virus in culture; type: cell-based; conditions: ATCC29213
[2] = test system: Haemophilus influenzae ATCC 49247; assay: microbe, parasite or virus in culture; type: cell-based; conditions: ATCC49247
[3] = test system: Acinetobacter baumannii NCTC 13420; assay: microbe, parasite or virus in culture; type: cell-based; conditions: NCTC13420
[4] = test system: Acinetobacter baumannii ATCC 19606; assay: microbe, parasite or virus in culture; type: cell-based; conditions: ATCC19606
[5] = test system: Streptococcus pneumoniae ATCC 49619; assay: microbe, parasite or virus in culture; type: cell-based; conditions: ATCC49619
[6] = test system: Pseudomonas aeruginosa ATCC 27853; assay: microbe, parasite or virus in culture; type: cell-based; conditions: ATCC27853
[7] = test system: Enterobacter cloacae NCTC 13406; assay: microbe, parasite or virus in culture; type: cell-based; conditions: NCTC13406
[8] = test system: human hepatic cell line (HepG2 ATCC HB-8065); assay: cells; conditions: HepG2, 24 h, read-out: IC50 (μg/mL) HepG2
[9] = test system: Escherichia coli ATCC 25922; assay: microbe, parasite or virus in culture; type: cell-based; conditions: ATCC25922
[10] = test system: Klebsiella pneumoniae ATCC 700603; assay: microbe, parasite or virus in culture; type: cell-based; conditions: ATCC700603

With `O=C1COc2ccc(N3C(=O)O[C@H]4CN(CCCn5c(=O)ccc6ccccc65)CC[C@H]43)nc2N1` (relative stereo) [Compound 2, rel-1-{3-[(3aR*,7aS*)-2-oxo-1-{3-oxo-2H,3H,4H-pyrido[3,2-b][1,4]oxazin-6-yl}-octahydro-[1,3]oxazolo[5,4-c]pyridin-5-yl]propyl}-1,2-dihydroquinolin-2-one] the MIC [1] was < 1 µg/mL, the MIC [2] was 1 to 10 µg/mL (≈ 2.1 to 21 µM) and the MIC [3] was < 1 µg/mL. The MIC [4] was 1 to 10 µg/mL (≈ 2.1 to 21 µM), the MIC [5] was < 1 µg/mL and the MIC [6] was 10 to 100 µg/mL (≈ 21 to 210 µM). It also gave an MIC [7] of 10 to 100 µg/mL (≈ 21 to 210 µM), an IC50 [8] of 10 to 100 µg/mL (≈ 21 to 210 µM) and an MIC [9] of 1 to 10 µg/mL (≈ 2.1 to 21 µM). The MIC [10] was 10 to 100 µg/mL (≈ 21 to 210 µM).

With `N#Cc1ccc2ccc(=O)n(CCCN3CC[C@@H]4[C@H](C3)OC(=O)N4c3ccc4c(n3)NC(=O)CO4)c2c1` (relative stereo) [Compound 6, rel-1-{3-[(3aR*,7aS*)-2-oxo-1-{3-oxo-2H,3H,4H-pyrido[3,2-b][1,4]oxazin-6-yl}-octahydro-[1,3]oxazolo[5,4-c]pyridin-5-yl]propyl}-2-oxo-1,2-dihydroquinoline-7-carbonitrile] the MIC [1] was < 1 µg/mL, the MIC [2] was 1 to 10 µg/mL (≈ 2 to 20 µM) and the MIC [3] was < 1 µg/mL. The MIC [4] was 1 to 10 µg/mL (≈ 2 to 20 µM), the MIC [5] was < 1 µg/mL and the MIC [6] was 10 to 100 µg/mL (≈ 20 to 200 µM). For the same compound, the MIC [7] was 1 to 10 µg/mL (≈ 2 to 20 µM), the IC50 [8] was 10 to 100 µg/mL (≈ 20 to 200 µM) and the MIC [9] was < 1 µg/mL. It also gave an MIC [10] of 10 to 100 µg/mL (≈ 20 to 200 µM).

With `COc1ccc2ccc(=O)n(CCCN3CC[C@H]4[C@@H](C3)OC(=O)N4c3ccc4c(n3)NC(=O)CO4)c2n1` (relative stereo) [Compound 7, rel-1-{3-[(3aR*,7aS*)-2-oxo-1-{3-oxo-2H,3H,4H-pyrido[3,2-b][1,4]oxazin-6-yl}-octahydro-[1,3]oxazolo[5,4-c]pyridin-5-yl]propyl}-7-methoxy-1,2-dihydro-1,8-naphthyridin-2-one] the MIC [1] was < 1 µg/mL, the MIC [2] was < 1 µg/mL and the MIC [3] was < 1 µg/mL. The MIC [4] was < 1 µg/mL, the MIC [5] was < 1 µg/mL and the MIC [6] was 10 to 100 µg/mL (≈ 19.7 to 197 µM). For the same compound, the MIC [7] was 1 to 10 µg/mL (≈ 1.97 to 19.7 µM), the IC50 [8] was 10 to 100 µg/mL (≈ 19.7 to 197 µM) and the MIC [9] was < 1 µg/mL. It also gave an MIC [10] of 10 to 100 µg/mL (≈ 19.7 to 197 µM).

`COc1ccc2ccc(=O)n(CCCN3CC[C@@H]4[C@@H](C3)OC(=O)N4c3ccc4c(n3)NC(=O)CO4)c2n1` (relative stereo) [Compound 9, rel-1-{3-[(3aR*,7aR*)-2-oxo-1-{3-oxo-2H,3H,4H-pyrido[3,2-b][1,4]oxazin-6-yl}-octahydro-[1,3]oxazolo[5,4-c]pyridin-5-yl]propyl}-7-methoxy-1,2-dihydro-1,8-naphthyridin-2-one] was tested, and the MIC [1] was < 1 µg/mL, the MIC [2] was < 1 µg/mL and the MIC [3] was < 1 µg/mL. The MIC [4] was < 1 µg/mL, the MIC [5] was < 1 µg/mL and the MIC [6] was 1 to 10 µg/mL (≈ 1.97 to 19.7 µM). For the same compound, the MIC [7] was 1 to 10 µg/mL (≈ 1.97 to 19.7 µM), the IC50 [8] was 10 to 100 µg/mL (≈ 19.7 to 197 µM) and the MIC [9] was < 1 µg/mL. For the same compound, the MIC [10] was 10 to 100 µg/mL (≈ 19.7 to 197 µM).

With `N#Cc1ccc2ccc(=O)n(CCCN3CC[C@@H]4[C@@H](C3)OC(=O)N4c3ccc4c(n3)NC(=O)CO4)c2c1` (relative stereo) [Compound 10, rel-1-{3-[(3aR*,7aR*)-2-oxo-1-{3-oxo-2H,3H,4H-pyrido[3,2-b][1,4]oxazin-6-yl}-octahydro-[1,3]oxazolo[5,4-c]pyridin-5-yl]propyl}-2-oxo-1,2-dihydroquinoline-7-carbonitrile] the MIC [1] was < 1 µg/mL, the MIC [2] was < 1 µg/mL and the MIC [3] was < 1 µg/mL. The MIC [4] was < 1 µg/mL, the MIC [5] was < 1 µg/mL and the MIC [6] was 1 to 10 µg/mL (≈ 2 to 20 µM). For the same compound, the MIC [7] was 1 to 10 µg/mL (≈ 2 to 20 µM), the IC50 [8] was 10 to 100 µg/mL (≈ 20 to 200 µM) and the MIC [9] was < 1 µg/mL. It also gave an MIC [10] of 10 to 100 µg/mL (≈ 20 to 200 µM).
